Structures can show the parent of a compound that is named as a salt.
Test system: HIV
Test: MT4 Assay (anti-HIV activity)
Format: cell-based
Conditions: Human immunodeficiency virus 1, 96 h, read-out: HIV MT4 Assay IC50, HTLV-1 transformed cell line MT-4, cell titer glo, 10 point dose response curve
Description: Antiviral HIV activity and cytotoxicity values for compounds of the invention from Table 1 were measured in parallel in the HTLV-1 transformed cell line MT-4 based on the method previously described (Hazen et al., 2007, In vitro antiviral activity of the novel, tyrosyl-based human immunodeficiency virus (HIV) type 1 protease inhibitor brecanavir (GW640385) in combination with other antiretrovirals and against a panel of protease inhibitor-resistant HIV (Hazen et al., “In vitro antiviral activity of the novel, tyrosyl-based human immunodeficiency virus (HIV) type 1 protease inhibitor brecanavir (GW640385) in combination with other antiretrovirals and against a panel of protease inhibitor-resistant HIV”, Antimicrob. Agents Chemother. 2007, 51: 3147-3154; and Pauwels et al., “Sensitive and rapid assay on MT-4 cells for the detection of antiviral compounds against the AIDS virus”, J. of Virological Methods 1987, 16: 171-185).
Luciferase activity was measured 96 hours later by adding a cell titer glo (Promega, Madison, Wis.). Percent inhibition of cell protection data was plotted relative to no compound control. Under the same condition, cytotoxicity of the compounds was determined using cell titer glo (Promega, Madison, Wis.). IC50s were determined from a 10 point dose response curve using 3-4-fold serial dilution for each compound, which spans a concentration range >1000 fold.

Compound	IC50
Cc1c(-c2c([C@H](OC(C)(C)C)C(=O)O)n(C)c(=O)c3cc(CN4CCCCC4)ccc23)cc(F)c2c1CCCO2 (atropisomer, axis not shown; (M)) [Example 190, (S)(M)-2-(tert-butoxy)-2-(4-(8-fluoro-5-methylchroman-6-yl)-2-methyl-1-oxo-7-(piperidin-1-ylmethyl)-1,2-dihydroisoquinolin-3-yl)acetic acid, Trifluoroacetic acid salt]	320 nM
Cc1ccc(-c2c(C(OC(C)(C)C)C(=O)O)n(C)c(=O)c3c(F)cccc23)cc1C (stereo not drawn) [Example 59, 2-(tert-butoxy)-2-[4-(3,4-dimethylphenyl)-8-fluoro-2-methyl-1-oxo-1,2-dihydroisoquinolin-3-yl]acetic acid]	2180 nM
Cc1c(-c2c(C(OC(C)(C)C)C(=O)O)n(C)c(=O)c3cc(OCc4ccc(OC(F)(F)F)cc4)ccc23)ccc2c1CCCO2 (stereo not drawn) [Example 146, 2-(tert-butoxy)-2-[2-methyl-4-(5-methyl-3,4-dihydro-2H-1-benzopyran-6-yl)-1-oxo-7-{[4-(trifluoromethoxy)phenyl]-methoxy}-1,2-dihydroisoquinolin-3-yl]acetic acid]	260 nM
Cn1c(C(OC(C)(C)C)C(=O)O)c(-c2ccc3c(c2)CCCO3)c2cc(F)ccc2c1=O (stereo not drawn) [Example 25, 2-(tert-butoxy)-2-[4-(3,4-dihydro-2H-1-benzopyran-6-yl)-6-fluoro-2-methyl-1-oxo-1,2-dihydroisoquinolin-3-yl]acetic acid]	670 nM
Cc1c(-c2c([C@H](OC3(C)CCC3)C(=O)O)n(C)c(=O)c3ccccc23)cc(F)c2c1CCCO2 (atropisomer, axis not shown; (M)) [Example 163, (2S)(M)-2-[4-(8-fluoro-5-methyl-3,4-dihydro-2H-1-benzopyran-6-yl)-2-methyl-1-oxo-1,2-dihydroisoquinolin-3-yl]-2-(1-methylcyclobutoxy)acetic acid]	110 nM
Cc1ccc(-c2c(C(OC(C)(C)C)C(=O)O)n(C)c(=O)c3ccc(F)cc23)cc1C (stereo not drawn) [Example 56, 2-(tert-butoxy)-2-[4-(3,4-dimethylphenyl)-6-fluoro-2-methyl-1-oxo-1,2-dihydroisoquinolin-3-yl]acetic acid]	1680 nM
Cn1c(C(OC(C)(C)C)C(=O)O)c(-c2ccc(Cl)c(Cl)c2)c2ccccc2c1=O (stereo not drawn) [Example 11, 2-(tert-butoxy)-2-[4-(3,4-dichlorophenyl)-2-methyl-1-oxo-1,2-dihydroisoquinolin-3-yl]acetic acid]	14800 nM
CCn1c(C(OC(C)(C)C)C(=O)O)c(-c2ccc3c(c2C)CCCO3)c2ccccc2c1=O (stereo not drawn) [Example 77, 2-(tert-butoxy)-2-[2-ethyl-4-(5-methyl-3,4-dihydro-2H-1-benzopyran-6-yl)-1-oxo-1,2-dihydroisoquinolin-3-yl]acetic acid]	490 nM
Cn1c(C(OC(C)(C)C)C(=O)O)c(-c2ccc(F)c(F)c2)c2ccccc2c1=O (stereo not drawn) [Example 38, 2-(tert-butoxy)-2-[4-(3,4-difluorophenyl)-2-methyl-1-oxo-1,2-dihydroisoquinolin-3-yl]acetic acid]	2410 nM
Cc1cc(C)cc(-c2c(C(OC(C)(C)C)C(=O)O)n(C)c(=O)c3ccccc23)c1 (stereo not drawn) [Example 10, 2-(tert-butoxy)-2-[4-(3,5-dimethylphenyl)-2-methyl-1-oxo-1,2-dihydroisoquinolin-3-yl]acetic acid]	10500 nM
COc1ccc2c(-c3cc(F)c4c(c3C)CCCO4)c(C(OC(C)(C)C)C(=O)O)n(C)c(=O)c2c1 (stereo not drawn) [Example 125, 2-(tert-butoxy)-2-[4-(8-fluoro-5-methyl-3,4-dihydro-2H-1-benzopyran-6-yl)-7-methoxy-2-methyl-1-oxo-1,2-dihydroisoquinolin-3-yl]acetic acid]	320 nM
Cc1c(-c2c(C(OC(C)(C)C)C(=O)O)n(C)c(=O)c3cc(OCc4ccccc4F)ccc23)ccc2c1CCCO2 (stereo not drawn) [Example 103, 2-(tert-butoxy)-2-{7-[(2-fluorophenyl)methoxy]-2-methyl-4-(5-methyl-3,4-dihydro-2H-1-benzopyran-6-yl)-1-oxo-1,2-dihydroisoquinolin-3-yl}acetic acid]	50 nM
Cn1c(C(OC(C)(C)C)C(=O)O)c(-c2cccnc2)c2ccccc2c1=O (stereo not drawn) [Example 41, 2-(tert-butoxy)-2-[2-methyl-1-oxo-4-(pyridin-3-yl)-1,2-dihydroisoquinolin-3-yl]acetic acid]	50000 nM
Cc1ccc(-c2c(C(OC(C)(C)C)C(=O)O)n(C)c(=O)c3cc(CNC(=O)C(=O)O)ccc23)cc1C (stereo not drawn) [Example 186, 2-(tert-butoxy)-2-(7-((carboxyformamido)methyl)-4-(3,4-dimethylphenyl)-2-methyl-1-oxo-1,2-dihydroisoquinolin-3-yl)acetic acid]	50000 nM
Cc1c(-c2c([C@H](OC(C)(C)C)C(=O)NO)n(C)c(=O)c3ccccc23)cc(F)c2c1CCCO2 (atropisomer, axis not shown; (M)) [Example 213, (S)(M)-2-(tert-butoxy)-2-(4-(8-fluoro-5-methylchroman-6-yl)-2-methyl-1-oxo-1,2-dihydroisoquinolin-3-yl)-N-hydroxyacetamide]	5250 nM
Cc1ccc(-c2c(C(OC(C)(C)C)C(=O)O)n(C)c(=O)c3cc(-c4cccn4C)ccc23)cc1C (stereo not drawn) [Example 191, [(1,1′-dimethylethyl)oxy][4-(3,4-dimethylphenyl)-2-methyl-7-(1-methyl-1H-pyrrol-2-yl)-1-oxo-1,2-dihydro-3-isoquinolinyl]acetic acid]	350 nM
Cc1ccc(-c2c(C(OC(C)(C)C)C(=O)O)n(C)c(=O)c3cc(-c4cnn(C)c4)ccc23)cc1C (stereo not drawn) [Example 192, [(1,1-dimethylethyl)oxy][4-(3,4-dimethylphenyl)-2-methyl-7-(1-methyl-1H-pyrazol-4-yl)-1-oxo-1,2-dihydro-3-isoquinolinyl]acetic acid]	350 nM
Cc1c(-c2c([C@H](OC(C)(C)C)C(=O)O)n(C)c(=O)c3cc(OCCF)ccc23)ccc2c1CCCO2 [Example 141, (2S)-2-(tert-butoxy)-2-[7-(2-fluoroethoxy)-2-methyl-4-(5-methyl-3,4-dihydro-2H-1-benzopyran-6-yl)-1-oxo-1,2-dihydroisoquinolin-3-yl]acetic acid]	30 nM
COCCOc1ccc2c(-c3ccc4c(c3C)CCCO4)c(C(OC(C)(C)C)C(=O)O)n(C)c(=O)c2c1 (stereo not drawn) [Example 81, 2-(tert-butoxy)-2-[7-(2-methoxyethoxy)-2-methyl-4-(5-methyl-3,4-dihydro-2H-1-benzopyran-6-yl)-1-oxo-1,2-dihydroisoquinolin-3-yl]acetic acid]	440 nM
COc1ccc2c(-c3cc(F)c4c(c3C)CCCO4)c([C@H](OC(C)(C)C)C(=O)O)n(C)c(=O)c2c1 [Example 106, (2S)-2-(tert-butoxy)-2-[4-(8-fluoro-5-methyl-3,4-dihydro-2H-1-benzopyran-6-yl)-7-methoxy-2-methyl-1-oxo-1,2-dihydroisoquinolin-3-yl]acetic acid]	40 nM
Cc1c(-c2c([C@H](OC(C)(C)C)C(=O)O)n(C)c(=O)c3cc(OCc4cccs4)ccc23)ccc2c1CCCO2 [Example 111, (2S)-2-(tert-butoxy)-2-[2-methyl-4-(5-methyl-3,4-dihydro-2H-1-benzopyran-6-yl)-1-oxo-7-(thiophen-2-ylmethoxy)-1,2-dihydroisoquinolin-3-yl]acetic acid]	30 nM

Reference: US9029391B2 (priority 2011, dated 2015)
